Key:
NIH-3T3 = experiment: Formation of stress fiber in NIH-3T3 by addition of lysophospholipids; type: cell-based, mouse; conditions: 10 μM, 37° C., 30 minutes, subconfluent serum starvation state; control: no formation
Method: NIH-3T3, a mouse-derived fibroblast cell, was incubated in a Dulbecoo's Modified Eagle's Medium (DMEM) containing 10% fetal bovine serum (FBS; made by Moregate), and was used in the Experiment. 2.5 ×10^4 cells of the NIH-3T3 were inoculated in a petri dish (10 cm in diameter) paved with cover glasses of 22 mm in diameter, and the medium was replacing with a FBS-free medium after 24 hours, and the cells were incubated in a serum starvation state for 48 hours. 10 μM of the lysophospholipid was added, and the cells were incubated at 37° C. for 30 minutes for stimulation. Then, the cells were fixed in the Dalbecco's PBS containing 3.7% of paraformaldehyde and 0.1% of Triton X-100 at room temperature for 10 minutes. Thereafter, the cells were stained with 5 units/ml of rhodamine phalloidin (made by Funakoshi) at 37° C. for 1 hour. The cover glasses were washed with PBS thrice, and observation was carried out by a cofocus laser microscope TCS NT Control laser Scanning Microscope (made by Leica).
The product obtained by the A.sp.362-derived PLD reaction was studied with respect to its biochemical activity in order to confirm further that it was a compound which is identical to cPA. Namely, the activity of forming actin stress fiber in a fibroblast cell, one of the physiological activities of cPA, was studied. To NIH-3T3, i.e. a fibroblast cell line derived from mouse, in the subconfluent state in the serum starvation state, each 10 μM of LPA, a chemically synthesized PHYLPA, or cPA, i.e. the PLD reaction product was added at 37° C. for 30 minutes, and then actin stress fiber was stained with Rhodamine phalloidin, and observation was carried out.

[1] = tested on: primary cultured cerebral cortex cells (neurons); experiment: Oligodendrocyte primary culturing system with cPA or LPA added: cell appearance at early culturing stage; type: cell-based, rat; conditions: 5 μM per dish, FIG. 7; for aggregation of cells and bundling of neurons: early culturing stage (P-6th day)
Method: (§1) A mother rat of 18 days of pregnancy (E18Wistar Rat) was put into an anesthesia bottle containing an adequate amount of diethyl ether, and was anesthetized. The anesthetization was carried out for 3-5 minutes and stopped just before death. The mother rat was taken out of the anesthesia bottle, put on a suitable vat to lie on its back, and disinfected at the hypogastric area with ethanol. The rat was tom along a cut line about 3-4 cm upward from the tail joint by a scissors, and opened sideward with the scissors to separate the inner membrane from the skin. The skin was tom to expose the inner membrane, which was disinfected again with ethanol and tom to take out the uterus. The Y-shaped section of the uterus was cut while lifting the uterus, and the uterus was taken out. The taken out uterus was dipped in a cooled MEM^− in order to decrease the damage of the fetus brain.
The cerebral cortex was picked by a round pincette into a 35 mm dish to which 2 ml of dispase I (3 U/ml) was added, and was placed in a CO2 5% and humidity 95% incubator at 37° C. for 5 minutes. Then, Dnase (1 ml) was added thereto, and the dish was put in the incubator for 10 minutes again. The resultant solution was sufficiently pipetted while being careful not to make bubbles by a Pasteur pipette having the top end rounded by burning, so that the cells might be free from any bundles. The upper inlet of 50 ml tube was covered with a 70 μm mesh, and the mesh was then wetted with an adequate amount of MEM^−. The cell suspension thus obtained was poured into the tube through the mesh, and about 2 ml of MEM^− was poured to wash the mesh. The mesh was removed, and the resultant was messed up to 30-40 ml with MEM^−. The thus obtained sample was centrifuged at 1,000 rpm for 5 minutes, and the supernatant was removed. […]
(§2) The dish is washed twice with about 5 ml of PBS(−). […] Then, the cell number is counted by a cell counter. The supernatant is discarded, 20-30 ml of MEM^+ (B.S at the third passage) is added, and the resultant is pipetted, and the cell number is counted by a cell counter. […]

O-2A precursor cells = experiment: Oligodendrocyte primary culturing system with cPA or LPA added: O-2A precursor cells; type: cell-based, rat; conditions: 5 μM per dish; for number of O-2A precursor cells versus control: 6th day from first passage (1P-6th day)
Method: as §1
(§3) The cerebral cortex was picked by a round pincette into a 35 mm dish to which 2 ml of dispase I (3 U/ml) was added, and was placed in a CO2 5% and humidity 95% incubator at 37° C. for 5 minutes. Then, Dnase (1 ml) was added thereto, and the dish was put in the incubator for 10 minutes again. The resultant solution was sufficiently pipetted while being careful not to make bubbles by a Pasteur pipette having the top end rounded by burning, so that the cells might be free from any bundles. The upper inlet of 50 ml tube was covered with a 70 μm mesh, and the mesh was then wetted with an adequate amount of MEM^−. The cell suspension thus obtained was poured into the tube through the mesh, and about 2 ml of MEM^− was poured to wash the mesh. The mesh was removed, and the resultant was messed up to 30-40 ml with MEM^−. The thus obtained sample was centrifuged at 1,000 rpm for 5 minutes, and the supernatant was removed. The sample was messed up again to 30-40 ml with MEM^−, pipetted and centrifuged again at 1,000 rpm. The supernatant was removed, and the sample was supplied with 30 ml of MEM^−, and sufficiently pipetted, and then the cell number was countered by a cell counter. The cell suspension was inoculated in the PLL-coated dishes to be 1.0×10^7 cells/dish. The liquid was adjusted with MEM^+ to be a final volume of 10 ml/dish, and the cells were cultured in an incubator.
After disposal of the culture medium, the dish is washed twice with about 3 ml of PBS(−), and 10 ml of the fresh culture medium is poured. The medium change after the 17th day is carried out using B.S (serum-free medium). […]
as §2

astrocytes = experiment: Oligodendrocyte primary culturing system with cPA or LPA added: astrocytes; type: cell-based, rat; conditions: 5 μM per dish; for astrocytes by GFAP staining: 2P-6th day, fluorescence microscope, FIG. 10; for state and cell density of astrocytes: 6th day from second passage (2P-6th day), serum-free medium, FIG. 9; for remaining astrocytes: 6th day from third passage (3P-6th day), FIG. 11
Method: as §1, §3
(§4) After disposal of the culture medium, the dish is washed twice with about 3 ml of PBS(−), and 10 ml of the fresh culture medium is poured. The medium change after the 17th day is carried out using B.S (serum-free medium). Only at the first medium change, 200 μl of bFGF is added per dish. It is because the O-2A precursor cell is grown.
(§5) The dish is washed twice with about 5 ml of PBS(−). At the first passage, the dish is left stand for 2-3 minutes after supplying PBS(−) at the second time. 2-3 ml of 0.05% trypsin is added, and the dish is left stand in a 37° C. incubator for 8 minutes. After observation of the cell condition with a microscope, while keeping the trypsin as it was, the dish is supplied with MEM^+ at the same amount as the trypsin, and the cells is pipetted to stop the action of trypsin. The resultant was centrifuged at 1,000 rpm for 5 minutes. After removing the supernatant, 20-30 ml of MEM^− is added, and the resultant is pipetted again, centrifuged at 1,000 rpm for 5 minutes. Then, the cell number is counted by a cell counter. The supernatant is discarded, 20-30 ml of MEM^+ (B.S at the third passage) is added, and the resultant is pipetted, and the cell number is counted by a cell counter. Depending on respective passage stages, the cells are inoculated in respective dishes at the following number, and are cultured while left standing in an incubator.
(§6) From the stage of primary culturing, cPA or LPA was added to be an amount of 5 μM per dish every passage and medium change. […]

oligodendrocytes = experiment: Oligodendrocyte primary culturing system with cPA or LPA added: oligodendrocytes; type: cell-based, rat; conditions: 5 μM per dish; for oligodendrocyte cell number and dendrites: further 10 days after 3P-OL, FIG. 13
Method: as §1, §3, §4, §5, §6

[2] = 3P-6th day, fluorescence microscope, FIG. 12

Compound	formation of actin stress fiber (Rhodamine phalloidin staining) (NIH-3T3)	aggregation of cells and bundling of neurons [1]	cell density (O-2A precursor cells; 1P-6th day, FIG. 8)	number of O-2A precursor cells versus control (O-2A precursor cells; FIG. 8)	proliferation of O-2A precursor cells (conclusion) (O-2A precursor cells; early culturing stage)	astrocytes by GFAP staining (astrocytes)	state and cell density of astrocytes (astrocytes)	remaining astrocytes (astrocytes)	survival of astrocytes (conclusion) (astrocytes; all culturing stages)	survival of astrocytes (astrocytes; further 10 days after 3P-OL, FIG. 13)	MBP staining colour versus control (oligodendrocytes; [2])	oligodendrocyte cell number and dendrites (oligodendrocytes)	cell appearance versus control ([1]; 6th day from primary culturing (P-6th day))	differentiation of oligodendrocytes by 04 staining (oligodendrocytes; 2P-6th day, fluorescence microscope, FIG. 10)	state of dendrites of oligodendrocytes (oligodendrocytes; 3P-6th day, FIG. 11)	extent of MBP staining along the dendrite (oligodendrocytes; 3P-6th day, FIG. 12)
CCCCCC[C@@H]1C[C@@H]1CCCCCCCC(=O)OC[C@@H]1COP(=O)(O)O1 [PHYLPA]	formation of stress fibers was observed	–	–	–	–	–	–	–	–	–	–	–	–	–	–	–
CCCCCCCC/C=C\CCCCCCCC(=O)OCC1COP(=O)(O)O1 (stereo not shown) [cPA, 1-oleoyl cyclic phosphatidic acid]	formation of stress fibers was observed	causes cells to aggregate and neurons to be bundled	much higher than the others	increase in number more remarkably	promotes O-2A precursor cells to proliferate	exists in a dense tissue	remained vigorous, and remained high in cell density	the astrocytes which was deformed to the narrow ones still remain	promotes the survival of astrocytes through all their culturing stages	the astrocytes survived even at this stage	develops color stronger	many dendrites of oligodendrocytes around them which were not suffered from apoptosis	–	–	–	–
lysophosphatidic acid [LPA]	formation of stress fibers was observed	aggregate to form bundles of the neurons	–	increase in number more remarkably	–	the tissue of the astrocytes can be confirmed	lowered in cell density, though not so wrong as in the control	little astrocytes remains	–	–	develops color stronger	the cell number itself decreased and the dendrite fell ragged	no large difference in cell appearance	elongated dendrites to form fine mesh-shape and differentiations is proceeded	dendrites of the oligodendrocytes suffer from aoptosis and begin to be ragged	even the tip of the dendrite is stained

From US20040176329A1, “Drugs for promoting the proliferation, differentiation and/or survival of glial cells containing cyclic phosphatidic acid” (priority 2001, published 2004)
